Experimental data: patent publication US20040022788A1, “Compositions and methods for promoting or inhibiting angiogenesis” (priority 1998, published 2004)

Legend:
HUVEC = HUVEC proliferation assay (MTS/PMS); type: cell-based, human; conditions: for Percent proliferation inhibited, ±SEM, Without Antibody: 24 h
Description: Proliferation Assay. HUVEC were plated at a density of 5,000 cells/well in media depleted of FCS overnight to allow the cells to become quiescent. […] In some experiments antibody directed against the alpha subunit of ATP synthase derived from E. coli was also added at a dilution of 1:10. MTS/PMS [(3-(4,5-dimethylthiazol-2-yl)-5-(3-carboxymethoxyphenyl)-2-(4-sulfophenyl)-2H-tetrazolium inner salt/phenazine methosulfate] solution was added after 24 h, and the absorbance of formazan was quantitated on a Thermomax plate reader at a wavelength of 490 nm according to the manufacturer's specifications (Promega). The absorbance values used to calculate the percent proliferation of the cells ranged from 0.81 for untreated, 0.60 for treated, and 0.47 for baseline quiescent cells.
Anti-alpha-subunit ATP synthase antibody derived from E. coli was added concomitantly at a dilution of 1:10. MTS/PMS solution was added and absorbance of formazan was quantitated according to the manufacturer's specifications. Results represent three separate experiments performed in duplicate with SEM. Percent recovery represents the ability of the anti-alpha-subunit ATP synthase antibody to block the antiproliferative effect of angiostatin, and thereby restore proliferation to an average of 81% of that obtained with the control cells.

[1] = molecular target: T1, ATP synthase on the surface of HUVEC (Homo sapiens, UniProt P05496+P06576+P25705); assay: Cell-surface ATP generation by bioluminescent luciferase assay; type: cell-based
T1 construct: endogenous in cells; host or cells: HUVEC (primary human umbilical vein endothelial cells)
Description: Cell-surface ATP Assay. […] Cells were treated with (1 μM) angiostatin or (0.1 mg/mL) oligomycin for 1 hr at 37° C. All cells were then incubated with 0.1 Ci ^32P and 0.1 Ci ([…]) [2,8-^3H]-ADP (NEN Life Sciences) for 1 min. Supernatants were removed and centrifuged before assaying for ATP production by thin layer chromatography (TLC) or by firefly luciferase assay. ATP Generation by Bioluminescent Luciferase Assay. […] Louis, Mo.). In this firefly luciferin-luciferase reaction, only ATP is readily detected since the enzymatic reaction of firefly luciferase to oxidize luciferin is specific for ATP relative to all other nucleotides. Samples were injected with the ATP assay mixture and recordings were made in a LuminoskanRS (LabSystems, Franklin, Mass.) over a 10 s period. The response in a given sample or standard was quantified as area under the peak of the response and averaged for duplicate determinations. Data are expressed as picomoles of ATP produced per cell based on standards determined under the same conditions with each experiment. Angiostatin was prepared as described in Sottrup-Jensen, […]., Petersen, T. E. & Magnusson, S. (1978) Progress in Chemical Fibrinolysis and Thrombolysis (Raven Press, New York).

[2] = molecular target: T2, purified bovine F1 ATP synthase (Bos taurus, UniProt P00829+P19483); assay: F1 activity assay (ATPase, coupled NADH oxidation at 340 nm); type: biochemical; conditions: angiostatin
T2 construct: from tissue; host or cells: bovine heart mitochondria
Description: FIG. 12 is a bar graph showing the inhibition of purified F1 ATP synthase by angiostatin. Purified F1 ATP synthase activity was measured spectrophotometrically at λ=340 nm by coupling the production of ADP to the oxidation of NADH via the pyruvate kinase and lactate dehydrogenase reaction in which a decrease in the absorbance at λ=340 nm indicates active protein (dark six membered rings). […] Control antibodies had no effect on activity (light circles and squares). Representative data shown, n=3.
Purification of Bovine Heart F1 ATP Synthase and F1 Activity Assay. Fresh bovine heart mitochondria were obtained as previously described (23) and sonicated to yield sub-mitochondrial particles (24). The F1 portion was separated from membrane-bound FO by chloroform extraction. The aqueous layer was centrifuged at 105,000×g to remove particulate matter before purifying over an S300 gel filtration column. […] ATPase activity was measured spectrophotometrically by monitoring at λ=340 nm by coupling the production of ADP to the oxidation of NADH via pyruvate kinase and lactate dehydrogenase reactions as described in Zheng,& Ramirez, Biochem Biophys Res Commun 261(25):499-503 (1999).

Percent Inhibition (+/− S.E.M.) of ATP generation ([1]; 1 μM, 50 μM ADP): 81%
inhibition of ATP generation with increasing concentrations ([1]; increasing concentrations of angiostatin): dose-dependent manner
inhibition of purified F1 ATPase activity [2]: completely inhibited
Substance: angiostatin
Percent proliferation inhibited, ±SEM, With antibody (HUVEC; angiostatin 0.5 μM plus anti-alpha subunit ATP synthase antibody 1:10): 1 ± 0.2%
Percent proliferation inhibited, ±SEM, Without Antibody (HUVEC; angiostatin 0.5 μM): 10 ± 1.4%
Percent proliferation inhibited, ±SEM, With antibody (HUVEC; angiostatin 0.75 μM plus anti-alpha subunit ATP synthase antibody 1:10): 5 ± 4.1%
Percent proliferation inhibited, ±SEM, Without Antibody (HUVEC; angiostatin 0.75 μM): 25 ± 4.2%
Percent proliferation inhibited, ±SEM, With antibody (HUVEC; angiostatin 1.0 μM plus anti-alpha subunit ATP synthase antibody 1:10): 6 ± 0.8%
Percent proliferation inhibited, ±SEM, Without Antibody (HUVEC; angiostatin 1.0 μM): 23 ± 9.0%
